The text below walks through data of paper PMC8197275, “Novel Tdp1 Inhibitors Based on Adamantane Connected with Monoterpene Moieties via Heterocyclic Fragments” (Molecules, 2021).

For orientation: CC50 means the concentration giving 50% cytotoxicity. The IC50 is the concentration that gives 50% inhibition.

In data set [1] the test system is HeLa cells. The data set is described as follows: Sensitizing of HeLa cells to topotecan by Tdp1 inhibitors. Particulars: for HeLa CC50 of topotecan with Tdp1 inhibitor: human, 3 days, 5 µM. The class given is cell-based, human. How it is done:
(§1) The potential for sensitizing the cancer cell lines to topotecan using the Tdp1 inhibitors was investigated using the MTT assay. Neutralizing the enzymatic activity of Tdp1 by blocking access to its catalytic site using a small molecule should sensitize the cytotoxic potential of topotecan, since the complex of Top1 with DNA cannot be unraveled. […] Nontoxic concentrations of the adamantane derivatives (5 μM) were used for the HeLa cell line; the dose response for topotecan was measured and the corresponding CC50 values were derived, and the results are shown in Figure 4 for 20c and in Table 2 for all the derivatives.
(§2) For HeLa cells, increased cytotoxicity was seen when the adamantanes and topotecan were combined. […] The combination index (CI) for different concentrations of topotecan and 20c at 5 μM was in the range 0.49–0.82, and at 10 μM of 20c, it was 0.23–0.78. This indicates a synergistic effect of topotecan and 20c. The CI values were calculated with the CompuSyn version 1.0 software. For the HCT-116 cells, the synergistic effects of the compounds were different than for the HeLa cells. […] The CI plot at a different fraction affected (Fa) was determined for topotecan (5, 15, 150, 500 and 1500 nM) and 20g (1, 3, 10, 20 μM). The CI values for most of the combinations correspond to a synergistic effect (CI < 1, see Figure S3 in the Supplementary Materials).
(§3) The human cervical cancer HeLa cells were grown in Iscove’s modified Dulbecco’s medium (IMDM) with 40 μg/mL gentamicin, 50 IU/mL penicillin, 50 μg/mL streptomycin (MP Biomedicals), and 10% of fetal bovine serum (Biolot) in a 5% CO2 atmosphere. Human colon adenocarcinoma HCT-116, rectum adenocarcinoma SW837, and human embryo kidney HEK293A cell lines were cultured in DMEM medium (Invitrogen) supplemented with 10% fetal bovine serum (FBS) (Invitrogen), penicillin (100 units/mL), and streptomycin (100 μg/mL), at 37 °C, 5% CO2 in a humid atmosphere. After the formation of a 30–50% monolayer, the tested compounds were added to the medium. The volume of the added reagents was 1/100 of the total volume of the culture medium, and the amount of DMSO was 1% of the final volume. Control cells were grown in the presence of 1% DMSO. The cell culture was monitored for 3 days.
(§4) The cytotoxicity of the compounds to HeLa and HEK293A cell lines was examined using the EZ4U Cell Proliferation and Cytotoxicity Assay (Biomedica, Austria), according to the manufacturer’s protocols.

Data set [2] deals with HCT-116 cells. The data set is described as follows: Sensitizing of HCT-116 cells to topotecan by Tdp1 inhibitors. The class given is cell-based, human. The conditions noted are these: for HCT116 CC50 of topotecan with Tdp1 inhibitor: human, 72 h. How it is done: as §1, §2, §3
(§5) The medium was removed, and the dark blue crystals of formazan were dissolved in 100 μL of isopropanol. The absorbance at 570 nm (peak) and 620 nm (baseline) was determined using a microplate reader Multiscan FC (Thermo Fisher Scientific Corporation). All concentrations were performed in triplicate. The values are given as mean ± standard deviation (S.D.) values, and all measurements were repeated three times.

The nature of data set [3]: Cytotoxicity, EZ4U Cell Proliferation and Cytotoxicity Assay, HeLa. The class given is cell-based. Particulars: human, HeLa cells, cervical cancer HeLa. Here is the method:
(§6) The cytotoxicity of compounds was investigated using HeLa (cervical cancer), SW837 and HCT-116 (colon cancers) cell lines, and the results are shown in Table 1 and Figure S2 in the Supplementary Materials. […] In general, the HeLa cell line was less sensitive to the inhibitors than the HCT-116 and SW837 cells.
as §3, §4

The nature of data set [4]: Cytotoxicity, MTT test, HCT-116. The class given is cell-based. The conditions noted are these: human, HCT-116 cells; colorectal HCT-116, 72 h MTT. Here is the method:
as §6, §3, §5

Data set [5] can be described thus: Cytotoxicity, MTT test, SW837. The conditions noted are these: human, SW837 cells; colorectal SW837, 72 h MTT. The class given is cell-based. Here is the method:
as §6, §3, §5

Data set [6] has as its target Tdp1 (Homo sapiens, UniProt Q9NUW8). The data set is described as follows: Tdp1 cleavage activity, fluorophore quencher-coupled DNA-biosensor, real-time. The class given is biochemical. More on the design: inferred from the pET 16B vector and Ni-chelating resin purification; made in house. The conditions noted are these: recombinant Tdp1 1.5 nM, 50 nM biosensor; read-out: IC50 (Tdp1 activity inhibition at 50%). Here is the method:
The recombinant Tdp1 was purified to homogeneity by chromatography on Ni-chelating resin and phosphocellulose P11 as described, using plasmid pET 16B-Tdp1, kindly provided by Dr. K.W. Caldecott (University of Sussex, United Kingdom). Tdp1 activity was detected as described in the work. Briefly, we measured the fluorescence intensity after quencher removal from a fluorophore quencher–coupled DNA oligonucleotide catalyzed by Tdp1. The reaction was carried out at different concentrations of inhibitors. The control samples contained 1% DMSO. The reaction mixtures contained Tdp1 buffer (50 mM Tris-HCl pH 8.0, 50 mM NaCl, and 7 mM β-mercaptoethanol), 50 nM biosensor, and an inhibitor being tested. The reaction was started by the addition of purified Tdp1 (1.5 nM). The biosensor (5′-[FAM] AAC GTC AGGGTC TTC C [BHQ]-3′) was synthesized in the Laboratory of Biomedical Chemistry at the Institute of Chemical Biology and Fundamental Medicine (Novosibirsk, Russia).
The reactions were incubated on a POLARstar OPTIMA fluorimeter (BMG LAB-TECH, GmbH) to measure fluorescence every 55 s (ex. 485 nm/em. 520 nm) during the linear phase (here, data are from minute 0 to minute 8). The values of IC50 were determined using a six-point concentration response curve in a minimum of three independent experiments, and were calculated using MARS Data Analysis 2.0 (BMG LABTECH).

Chain of Tdp1 (Q9NUW8 whole entry): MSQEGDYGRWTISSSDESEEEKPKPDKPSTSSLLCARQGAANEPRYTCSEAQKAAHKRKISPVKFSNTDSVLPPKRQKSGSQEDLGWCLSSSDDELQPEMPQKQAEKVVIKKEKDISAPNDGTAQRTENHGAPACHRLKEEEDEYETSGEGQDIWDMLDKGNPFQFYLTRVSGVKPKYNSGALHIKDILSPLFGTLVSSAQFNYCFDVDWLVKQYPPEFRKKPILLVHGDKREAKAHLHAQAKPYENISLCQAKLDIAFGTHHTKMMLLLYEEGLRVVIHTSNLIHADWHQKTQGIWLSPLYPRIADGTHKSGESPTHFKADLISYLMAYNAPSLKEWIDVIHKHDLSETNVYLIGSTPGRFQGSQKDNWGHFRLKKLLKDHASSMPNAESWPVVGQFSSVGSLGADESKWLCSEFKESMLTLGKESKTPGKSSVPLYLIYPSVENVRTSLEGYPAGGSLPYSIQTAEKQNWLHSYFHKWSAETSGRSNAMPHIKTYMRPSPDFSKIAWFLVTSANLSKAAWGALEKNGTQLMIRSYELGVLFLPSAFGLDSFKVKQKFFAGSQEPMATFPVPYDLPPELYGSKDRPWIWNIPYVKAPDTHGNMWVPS

Turning to `CC[C@@]1(O)C(=O)OCc2c1cc1n(c2=O)Cc2cc3c(CN(C)C)c(O)ccc3nc2-1` [Topotecan, topotecan, reference compound], the CC50 in data set [1] (Homo sapiens, HeLa, topotecan alone) amounted to 6 µM; in data set [2] (Homo sapiens, HCT-116, topotecan alone, read-out: HCT116 CC50 of topotecan), 0.715 µM.
With `CC(C)CCCC(C)CCSc1n[nH]c(C23CC4CC(CC(C4)C2)C3)n1` (stereo not drawn) [20a, 5-(Adamantan-1-yl)-3-((3,7-dimethyloctyl)thio)-1H-1,2,4-triazole], half-maximal cytotoxicity in data set [3] (CC50 at 3 days) was put at 85 ± 23 µM. Also, the CC50 at 72 h was determined as 27 ± 6 µM in data set [4] and 52 ± 6 µM in data set [5]. Further, the “HeLa CC50 of topotecan with Tdp1 inhibitor” value in data set [1] worked out at 4.5 µM. Besides, the “HCT116 CC50 of topotecan with Tdp1 inhibitor” value in data set [2] (20 µM) is on record as 650.0 (20) nM. Also, in data set [6], the IC50 worked out at 0.54 ± 0.09 µM.
The compound `CC(C)=CCC[C@H](C)CCSc1n[nH]c(C23CC4CC(CC(C4)C2)C3)n1` [20b, 5-(Adamantan-1-yl)-3-(((S)-3,7-dimethyloct-6-en-1-yl)thio)-1H-1,2,4-triazole] registered a CC50 at 3 days in data set [3] greater than 100 µM. Besides, the CC50 at 72 h in data set [4] is greater than 100 µM; in data set [5] it was 41 ± 4 µM. Further, the “HCT116 CC50 of topotecan with Tdp1 inhibitor” value in data set [2] (20 µM) is 575.3 (20) nM. Moreover, the concentration for half-maximal inhibition (IC50) in data set [6] is 1.5 ± 0.3 µM.
Regarding `CC1(C)[C@H]2CC=C(CCNC(=O)C34CC5CC(CC(C5)C3)C4)[C@@H]1C2` [28g, reference compound], the IC50 in data set [6] is greater than 15 µM.
The compound `CC(C)=CCC/C(C)=C\CSc1n[nH]c(C23CC4CC(CC(C4)C2)C3)n1` [20d, 5-(Adamantan-1-yl)-3-(((Z)-3,7-dimethylocta-2,6-dien-1-yl)thio)-1H-1,2,4-triazole] yielded a cytotoxic concentration (CC50) at 3 days in data set [3] of 31 ± 11 µM. The values for the cytotoxic concentration (CC50) at 72 h in data set [4] and in data set [5] were 20 ± 9 µM and 17 ± 5 µM, respectively. Moreover, in data set [1], the “HeLa CC50 of topotecan with Tdp1 inhibitor” value was determined as 5.4 µM. Moreover, the “HCT116 CC50 of topotecan with Tdp1 inhibitor” value in data set [2] (15 µM) was 689.0 (15) nM. For the same compound, the IC50 in data set [6] was determined as 5.6 ± 0.6 µM.
With `CC1(C)[C@H]2CC=C(C(=O)Nc3nnc(C45CC6CC(CC(C6)C4)C5)s3)[C@@H]1C2` [25c, (1R,5S)-N-(5-(Adamantan-1-yl)-1,3,4-thiadiazol-2-yl)-6,6-dimethylbicyclo[3.1.1]hept-2-ene-2-carboxamide], in data set [3], the 50% cytotoxic concentration (CC50) at 3 days was greater than 100 µM. In addition, the CC50 at 72 h in data set [4] and in data set [5] was greater than 100 µM in each case. In data set [1], the “HeLa CC50 of topotecan with Tdp1 inhibitor” value amounted to 3.6 µM. Besides, the “HCT116 CC50 of topotecan with Tdp1 inhibitor” value in data set [2] (25 µM) was 486.0 (25) nM. For the same compound, the 50% inhibitory concentration (IC50) in data set [6] was determined as 0.45 ± 0.09 µM.
`CC(C)CCCC(C)CC(=O)Nc1nnc(C23CC4CC(CC(C4)C2)C3)s1` (stereo not drawn) [25a, N-(5-(Adamantan-1-yl)-1,3,4-thiadiazol-2-yl)-3,7-dimethyloctanamide] yielded a CC50 at 3 days in data set [3] greater than 100 µM. The cytotoxic concentration (CC50) at 72 h in data set [4] and in data set [5] was greater than 100 µM in each case. Besides, in data set [1], the “HeLa CC50 of topotecan with Tdp1 inhibitor” value is 4.9 µM. The “HCT116 CC50 of topotecan with Tdp1 inhibitor” value in data set [2] (45 µM) is recorded as 455.7 (45) nM. Moreover, the IC50 in data set [6] was found to be 0.35 ± 0.05 µM.
Consider `CC1(C)[C@H]2CC=C(CSc3n[nH]c(C45CC6CC(CC(C6)C4)C5)n3)[C@@H]1C2` [20f, 5-(Adamantan-1-yl)-3-((((1R,5S)-6,6-dimethylbicyclo[3.1.1]hept-2-en-2-yl)methyl)thio)-1H-1,2,4-triazole], for which the cytotoxic concentration (CC50) at 3 days in data set [3] turned out to be 15 ± 2 µM. Besides, the CC50 at 72 h in data set [4] came to 54 ± 5 µM; in data set [5], 46 ± 6 µM. Moreover, the “HeLa CC50 of topotecan with Tdp1 inhibitor” value in data set [1] is 2.8 µM. Moreover, the “HCT116 CC50 of topotecan with Tdp1 inhibitor” value in data set [2] (25 µM) is recorded as 715.0 (25) nM. In addition, the IC50 in data set [6] amounted to 7.5 ± 1.8 µM.
With `CC(C)CCCC(C)CCNC(=O)C12CC3CC(CC(C3)C1)C2` (stereo not drawn) [28a, reference compound], the IC50 in data set [6] is greater than 15 µM.
Turning to `C=C(C)[C@@H]1CC=C(CSc2n[nH]c(C34CC5CC(CC(C5)C3)C4)n2)CC1` [20e, 5-(Adamantan-1-yl)-3-((((S)-4-(prop-1-en-2-yl)cyclohex-1-en-1-yl)methyl)thio)-1H-1,2,4-triazole], half-maximal cytotoxicity in data set [3] (CC50 at 3 days) was put at 24 ± 16 µM. The CC50 at 72 h came to 15 ± 5 µM in data set [4] and 40 ± 4 µM in data set [5]. In addition, the “HCT116 CC50 of topotecan with Tdp1 inhibitor” value in data set [2] (15 µM) is on record as 392.0 (15) nM. Further, the IC50 in data set [6] was 6.2 ± 2.2 µM.
`CC1(C)[C@H]2CC=C(C(=O)NC34CC5CC(CC(C5)C3)C4)[C@@H]1C2` [26c, reference compound]: the IC50 in data set [6] is greater than 15 µM.
